Laboratory results from US6897036B2, “Fluorescent detection of peroxidase enzymes” (Lumigen, Inc., priority 2002, dated 2005).

Target: T1, HRP (Armoracia rusticana, UniProt P00433)
T1 sequence (P00433 31-338): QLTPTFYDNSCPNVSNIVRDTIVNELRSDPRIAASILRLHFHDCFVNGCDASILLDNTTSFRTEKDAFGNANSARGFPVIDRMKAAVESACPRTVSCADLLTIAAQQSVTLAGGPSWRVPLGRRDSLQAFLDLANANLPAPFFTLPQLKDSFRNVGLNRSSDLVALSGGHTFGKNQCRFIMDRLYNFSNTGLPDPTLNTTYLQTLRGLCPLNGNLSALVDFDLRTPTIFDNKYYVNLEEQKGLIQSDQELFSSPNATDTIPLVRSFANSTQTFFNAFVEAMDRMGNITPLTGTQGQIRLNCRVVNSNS
Assay: Detection of HRP with acridan substrate 13 by chemiluminescence and fluorescence (FIG. 5)
Assay type: biochemical, horseradish
Settings: 0.05 mM substrate
Experimental: FIG. 5 is a graph showing the linearity of detection of HRP using reagent compositions containing substrate 13 with fluorescence and chemiluminescence detection. A solution containing 0.05 mM compound 13, 0.1 mM 4-phenylphenol, 0.5 mM urea peroxide, 1 mM EDTA, 0.025% TWEEN 20 in 10 mM tris, pH 8.0 was reacted with the indicated quantities of HRP. Chemiluminescence intensity was measured 10 min after addition of enzyme, fluorescence at 515 nm was measured 30 min after addition of enzyme.
Chemiluminescent HRP detection limit using a reagent composition containing 0.05 mM 2′,3′,6′-trifluorophenyl 3-methoxy-10-methylacridan-9-carboxylate (compound 13), 0.1 mM 4-phenylphenol, 0.5 mM urea peroxide, 1 mM EDTA, and 0.025% TWEEN 20 in 0.01 M tris buffer, pH 8.0 was obtained on a Labsystems Luminoskan microtiter plate reader. White Microlite 1 FB 12-well strips (Dynatech Laboratories) containing 100 μL of the reagent in each well were reacted with 10 μL of HRP dilutions. Light intensity was measured at 10 min.
Sensitive detection of HRP was achieved using the reaction solutions of Example 22 producing fluorescence by the second mode. After making the chemiluminescence measurement, the strips were transferred to the fluorometer and fluorescence intensity determined at 530 nm with excitation at 380 nm.

For `COc1ccc2c(c1)N(C)c1ccccc1C2C(=O)Oc1c(F)ccc(F)c1F` (centres unmarked) [Compound 13, 2′,3′,6′-trifluorophenyl 3-methoxy-10-methylacridan-9-carboxylate], the “Detectable amount of HRP (fluorescence, second mode)” value (tris pH 8.0, fluorescence at 530 nm, excitation 380 nm) was “less than 1 amol” and the “Sensitivity of fluorescent detection compared with chemiluminescent detection (in words)” value (tris pH 8.0, same reaction solutions) was “equivalent to chemiluminescent detection”.
